Reference: ChEMBL document CHEMBL1155098, “Synthesis and binding studies of 2-O- and 11-O-substituted N-alkylnoraporphines” (Bioorg Med Chem Lett, 2008)

How the values were obtained:
Rattus norvegicus = species: Rattus norvegicus; assay: Selectivity ratio of […] in rat corpus striatum; format: tissue-based
D(1A) dopamine receptor = D(1A) dopamine receptor (Rattus norvegicus, UniProt P18901); assay: Displacement of [3H]SCH23390 from dopamine D1 receptor in rat corpus striatum
D(2) dopamine receptor = D(2) dopamine receptor (Rattus norvegicus, UniProt P61169); assay: Displacement of [3H]neomonapride from dopamine D2 receptor in rat corpus striatum
Chain of D(2) dopamine receptor (P61169 whole entry): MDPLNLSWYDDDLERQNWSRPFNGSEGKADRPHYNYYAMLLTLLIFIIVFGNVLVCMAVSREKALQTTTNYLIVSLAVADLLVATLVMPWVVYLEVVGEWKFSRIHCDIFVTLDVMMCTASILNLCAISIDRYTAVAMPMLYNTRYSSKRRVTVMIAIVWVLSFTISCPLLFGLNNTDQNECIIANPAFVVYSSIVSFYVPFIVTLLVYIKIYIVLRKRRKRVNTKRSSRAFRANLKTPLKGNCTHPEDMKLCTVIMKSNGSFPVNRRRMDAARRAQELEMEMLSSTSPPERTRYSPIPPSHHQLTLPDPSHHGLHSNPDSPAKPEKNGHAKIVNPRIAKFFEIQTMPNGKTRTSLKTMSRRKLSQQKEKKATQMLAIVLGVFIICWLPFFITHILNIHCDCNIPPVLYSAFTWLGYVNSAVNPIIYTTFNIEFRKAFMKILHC

[1] = molecular target: T1, 5-hydroxytryptamine receptor 1A (Rattus norvegicus, UniProt P19327); assay: Displacement of [3H]8-OH-DPAT from Serotonin 5-HT1A receptor in rat corpus striatum
T1 sequence (P19327 whole entry): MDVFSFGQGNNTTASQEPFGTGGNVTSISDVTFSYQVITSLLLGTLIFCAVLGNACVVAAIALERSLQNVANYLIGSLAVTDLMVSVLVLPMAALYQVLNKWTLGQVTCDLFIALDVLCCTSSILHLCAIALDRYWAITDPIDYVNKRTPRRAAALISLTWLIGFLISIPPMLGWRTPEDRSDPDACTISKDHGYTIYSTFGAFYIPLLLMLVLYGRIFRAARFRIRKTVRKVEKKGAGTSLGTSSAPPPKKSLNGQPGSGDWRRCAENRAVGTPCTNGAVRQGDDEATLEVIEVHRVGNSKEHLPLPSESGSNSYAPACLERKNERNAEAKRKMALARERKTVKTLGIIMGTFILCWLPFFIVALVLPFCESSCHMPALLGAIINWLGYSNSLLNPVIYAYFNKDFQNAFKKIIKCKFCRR

Chain of D(1A) dopamine receptor (P18901 whole entry): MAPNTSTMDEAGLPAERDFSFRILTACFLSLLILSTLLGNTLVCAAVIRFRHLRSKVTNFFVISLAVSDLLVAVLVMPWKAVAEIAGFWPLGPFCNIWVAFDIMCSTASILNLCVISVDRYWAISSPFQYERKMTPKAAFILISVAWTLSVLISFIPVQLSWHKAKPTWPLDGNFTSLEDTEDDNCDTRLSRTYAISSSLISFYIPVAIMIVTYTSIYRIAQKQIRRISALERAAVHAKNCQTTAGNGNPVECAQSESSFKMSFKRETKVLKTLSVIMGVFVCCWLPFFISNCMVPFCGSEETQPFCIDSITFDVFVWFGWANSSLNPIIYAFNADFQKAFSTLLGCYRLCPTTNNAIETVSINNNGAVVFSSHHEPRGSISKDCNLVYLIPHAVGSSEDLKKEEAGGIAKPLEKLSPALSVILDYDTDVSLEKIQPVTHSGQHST

SMILES | Ratio (Rattus norvegicus) | Ki (D(1A) dopamine receptor) [nM] | Ki (D(2) dopamine receptor) [nM] | Ki [1] [nM]
COc1cc2c3c(c1)-c1ccccc1C[C@H]3N(C)CC2 | 1.8 | 1300 | 731 | 2660
CCOc1cccc2c1-c1cc(O)cc3c1[C@@H](C2)N(C)CC3 | 5.7 | 3680 | 641 | 432
CCCN1CCc2cc(OCCO)cc3c2[C@H]1Cc1cccc(O)c1-3 | > 103 | > 10000 | 97 | 
CCCOc1cccc2c1-c1cc(O)cc3c1[C@@H](C2)N(C)CC3 |  | 1810 |  | 
CN1CCc2cc(O)cc3c2[C@H]1Cc1cccc(OCCO)c1-3 | 3 | > 10000 | 3340 | 289
CCCN1CCc2cc(OC)cc3c2[C@H]1Cc1ccccc1-3 |  | > 10000 |  | 1600
